Tested on: RSV subgenomic replicon 395 HeLa
Test: RSV replicon assay (Renilla luciferase, 395 HeLa replicon cells)
Assay type: cell-based
Details: human respiratory syncytial virus, 168 h
Source text: The RSV subgenomic replicon 395 HeLa was licensed from Apath (Brooklyn, N.Y.) and was originally developed by Dr. Mark Meeples of Center for Vaccines & Immunity, the Research Institute at Nationwide Children's Hospital in Columbus, Ohio. To generate subgenomic RSV replicon, three glycoprotein genes, those for SH, G, and F, from a full-length recombinant GFP-expressing (rg) RSV antigenomic cDNA were deleted. In their place, a blasticidin S deaminase (bsd) gene was inserted. Through multiple steps, the RSV replicon was established in HeLa cells. The 395 HeLa cells were cultured in Dulbecco's Modified Eagle Medium (DMEM) containing 4500 mg/L D-glucose, L-glutamine, and 110 mg/L sodium pyruvate (Invitrogen, Cat. #11995-040). The medium was further supplemented with 10% (v/v) fetal bovine serum (FBS) (Mediatech, Cat. #35-010-CV), 1% (v/v) penicillin/streptomycin (Mediatech, Cat. #30-002-CI), and 10 μg/mL of Blasticidin (BSD) (Invivogen, Cat. code ant-b1-1). Cells were maintained at 37° C. in a humidified 5% CO2 atmosphere.
Determination of 50% inhibitory concentration […], 90% inhibitory concentration (C90) and 50% cytotoxic concentration […] in RSV replicon cells were performed by the following procedure. […]
The Renilla Luciferase Assay System (Promega, Cat. #E2820) was used to measure anti-RSV replicon activity. […] Luminescence was recorded using a Perkin Elmer multilabel counter Victor3V.

## [2H]C([2H])(OC(=O)C(C)C)[C@@]1(CCl)O[C@@H](n2ccc(N)nc2=O)[C@H](F)[C@@H]1OC(=O)C(C)C [Compound 31]
  EC50: < 1000 nM
